Columns and labels:
Conditions in all cases: 72 h
U2OS [1] = test: cell viability relative to DMSO; higher = less toxic
Caco-2 [2] = test: as above
HepG2 [3] = test: as above
Calu-3 [4] = test: as above
Vero E6 [5] = test: as above
U2OS [6] = test: drug sensitivity score (DSS) for viability; higher = more toxic; extreme values may be limits of the assay
Caco-2 [7] = test: as above
HepG2 [8] = test: as above
Calu-3 [9] = test: as above
Vero E6 [10] = test: as above
U2OS [11] = test: relative viability EC50 (midpoint between 100% and the lowest measured viability); higher = less toxic
Caco-2 [12] = test: as above
HepG2 [13] = test: as above
Calu-3 [14] = test: as above
Vero E6 [15] = test: as above

| SMILES | cell viability (U2OS [1]; 1 nM) | cell viability (U2OS [1]; 10 nM) | cell viability (U2OS [1]; 100 nM) | cell viability (U2OS [1]; 1000 nM) | cell viability (U2OS [1]; 10000 nM) | cell viability (Caco-2 [2]; 1 nM) | cell viability (Caco-2 [2]; 10 nM) | cell viability (Caco-2 [2]; 100 nM) | cell viability (Caco-2 [2]; 1000 nM) | cell viability (Caco-2 [2]; 10000 nM) | cell viability (HepG2 [3]; 1 nM) | cell viability (HepG2 [3]; 10 nM) | cell viability (HepG2 [3]; 100 nM) | cell viability (HepG2 [3]; 1000 nM) | cell viability (HepG2 [3]; 10000 nM) | cell viability (Calu-3 [4]; 1 nM) | cell viability (Calu-3 [4]; 10 nM) | cell viability (Calu-3 [4]; 100 nM) | cell viability (Calu-3 [4]; 1000 nM) | cell viability (Calu-3 [4]; 10000 nM) | cell viability (Vero E6 [5]; 1 nM) | cell viability (Vero E6 [5]; 10 nM) | cell viability (Vero E6 [5]; 100 nM) | cell viability (Vero E6 [5]; 1000 nM) | cell viability (Vero E6 [5]; 10000 nM) | drug sensitivity score (U2OS [6]) | drug sensitivity score (Caco-2 [7]) | drug sensitivity score (HepG2 [8]) | drug sensitivity score (Calu-3 [9]) | drug sensitivity score (Vero E6 [10]) | relative viability EC50 (U2OS [11]) | relative viability EC50 (Caco-2 [12]) | relative viability EC50 (HepG2 [13]) | relative viability EC50 (Calu-3 [14]) | relative viability EC50 (Vero E6 [15]) |
| --- | --- | --- | --- | --- | --- | --- | --- | --- | --- | --- | --- | --- | --- | --- | --- | --- | --- | --- | --- | --- | --- | --- | --- | --- | --- | --- | --- | --- | --- | --- | --- | --- | --- | --- | --- |
| O=C(O)c1nc(=O)[nH]c(=O)[nH]1 [oxonic-acid] | 102% | 101% | 99.6% | 102% | 106% | 87.9% | 76.3% | 89.9% | 112% | 101% | 105% | 103% | 97.4% | 115% | 101% | 94.6% | 106% | 105% | 110% | 108% | 89.2% | 63.8% | 98.5% | 79.8% | 90.7% | 0 | 0 | 0 | 0 | 0 | > 10 µM | > 10 µM | > 10 µM | > 10 µM | > 10 µM |
| CC(=O)Nc1ccc(O)cc1 [paracetamol] | 99.9% | 101% | 95.4% | 102% | 93.7% | 91.7% | 103% | 94.7% | 98.2% | 98.8% | 99.5% | 104% | 88.8% | 94.3% | 92.5% | 94.7% | 96.6% | 97.2% | 99.8% | 99% | 97.9% | 95.4% | 102% | 92.5% | 102% | 0 | 0 | 0.6 | 0 | 0 | > 10 µM | > 10 µM | > 10 µM | > 10 µM | > 10 µM |
| Oc1ccc(Cl)cc1 [parachlorophenol] | 98.5% | 96.5% | 97.2% | 95.4% | 102% | 94.2% | 91.5% | 99.7% | 90.4% | 100% | 108% | 99.1% | 90.9% | 111% | 98.4% | 102% | 100% | 98.9% | 91.2% | 104% | 100% | 101% | 99.3% | 97.7% | 99.7% | 0 | 0 | 0 | 0 | 0 | > 10 µM | > 10 µM | > 10 µM | > 10 µM | > 10 µM |
| CCCCCCCCCCCCCC[C@@H](O)[C@@H](O)[C@@H](N)CO [phytosphingosine] | 101% | 100% | 98.9% | 102% | 98.3% | 115% | 102% | 87.3% | 113% | 99.5% | 91% | 92.7% | 112% | 100% | 97.9% | 103% | 101% | 98.6% | 82.3% | 103% | 98.7% | 98.2% | 95.9% | 111% | 95.2% | 0 | 0 | 0 | 0 | 0 | > 10 µM | > 10 µM | > 10 µM | > 10 µM | > 10 µM |

Reference: the supplement of paper PMC13380429
